Results taken from patent US5582997A, “Lysine/leucine polypeptides, mixture sets and libraries thereof” (priority 1994, dated 1996).
Where no end group is shown, it is not given here.

Columns and labels:
[1] = test system: human erythrocytes (red blood cells; RBCs); experiment: Hemolytic activity; type: cell-based; conditions: for HC50 (μg/ml) against Erythrocytes: red cells of human
Experimental: The hemolytic activities of the polypeptide mixture sets were determined by using human erythrocytes (red blood cells; RBCs). The cells were washed three times with phosphate-buffered saline (PBS/35 mM phosphate buffer--0.15M NaCl, pH 7.0) and resuspended in PBS. The hemolytic activity of the polypeptide sets were determined as described in Blondelle et al., Biochem. Biophys. Acta, 1202:331-336 (1993) using 96 well tissue culture plates. In brief, 100 μl of 0.5 percent RBC solution were added to an equal volume of peptides in PBS. The plates were incubated for one hour at 37° C. and the optical density (OD) of the supernatant was measured at 414 nm. The concentration in peptide necessary to lyse 50 percent RBCs (HD50) was then determined for each peptide using a sigmoidal curve fitting method (Graphpad).

[2] = test system: Staphylococcus aureus (ATCC 29213); type: cell-based; conditions: for IC50 (μg/ml) against S. aureus: individual polypeptides
Experimental: The polypeptide libraries of Example 1 were assayed for activity against Staphylococcus aureus [(ATCC 29213); ATCC, 12301 Parklawn Drive, Rockville, Md.]
(§1) To initiate the exponential phase of bacterial growth prior to the assay, a sample of bacteria grown overnight (about 18 hours) at 37° C. in Mueller Hinton broth (MH-Becton Dickinson Microbiology Systems) was reinoculated and incubated at 37° C. A final concentration of […] was used in all assays, vortexed and diluted 10-fold in Yeast Media (YM) broth (Difco Laboratories, Detroit, Mich.), for an approximate final concentration of 10^5 to 5×10^5 CFU/ml. The assays were carried out in 96-well tissue culture plates (Costar, Pleasanton, Calif.), as described in Blondelle et al., Biochem., 31:12688-12694 (1992). In brief, a bacterial suspension in 2× broth was added to the polypeptides mixture sets at concentrations derived from serial two-fold dilutions varying from 1000 μg/ml to 4 μg/ml. The plates were then incubated 21 hours at 37° C. The relative percent growth of the bacteria was determined by the optical density at 620 nm (OD620) using a Titertek Multiskan Plus apparatus (Flow Laboratories, McLean, Va.). The concentration necessary to inhibit 50 percent bacterial growth (IC50) was then calculated using the software program Graphpad (ISI, San Diego, Calif.).

E. coli ATCC 25922 = type: cell-based; conditions: for IC50 (μg/ml) against E. coli: individual polypeptides
Experimental: as §1
Studies similar to those with S. aureus were carried out using E. coli ATCC 25922. Here, results were not as dramatic, but enhancements in activity of about 2-fold were observed using the set libraries of Example 1.

[3] = Decarboxylase-like activity: catalysed decarboxylation of oxalacetate; type: biochemical; conditions: for kcat × 10^3 (S^-1): values are kcat × 10^3
Experimental: Each peptide mixture was assayed at 0.2 mM in the presence of 11.4 mM of oxalacetic acid (C4 H4 O5) at pH 7.0 (dilution done in PBS--35 mM phosphate buffer--0.15M NaCl) and 22° C. The kinetics of the decarboxylation reaction were monitored by UV spectroscopy at 280 nm for 45 minutes and the initial rate "v" was calculated directly from the kinetic software included with the spectrophotometer (Hewlett Packard Diode Array Spectrophotometer 8452A).
Based upon the scanning assay studies, a series of 144 individual polypeptides was prepared and assayed as above except that the oxalacetic acid concentration was 11.5 mM. These polypeptides had the sequence of SEQ ID NO:2 with residues at positions Xaa^6 being Glu, Lys or Trp; residues at Xaa^9 being Ala, Asn or Trp; residues at Xaa^13 being Glu, Gln, Val or Trp; and residues at position Xaa^16 being Asp, Met, Gln or Arg (3×3×4×4=144).

**Q.** For “YKLLKLLLPKLKPLLFKL-NH2 [SEQ ID NO: 6, YKLLKLLLPKLKPLLFKL]”, which “HC50 (μg/ml) against Erythrocytes” value [1] is on record?
**A.** 54.74 µg/mL

**Q.** And the “IC50 (μg/ml) against S. aureus” value [2]?
**A.** 2.11 µg/mL

**Q.** And the “IC50 (μg/ml) against E. coli” value (E. coli ATCC 25922)?
**A.** 1.98 µg/mL

**Q.** With “YKLLKLLLPKLKGLLIKL-NH2 [SEQ ID NO: 4, YKLLKLLLPKLKGLLIKL]” as the substance, how does the “HC50 (μg/ml) against Erythrocytes” value [1] read?
**A.** 28.41 µg/mL

**Q.** What about the “IC50 (μg/ml) against S. aureus” value [2] of the same substance?
**A.** 2.52 µg/mL

**Q.** And the “IC50 (μg/ml) against E. coli” value (E. coli ATCC 25922)?
**A.** 3.61 µg/mL

**Q.** With “YKLLKLLLPKLKGLLPKL-NH2 [SEQ ID NO: 5, YKLLKLLLPKLKGLLPKL]” as the substance, how does the “HC50 (μg/ml) against Erythrocytes” value [1] read?
**A.** > 125 µg/mL

**Q.** What about the “IC50 (μg/ml) against S. aureus” value [2] of the same substance?
**A.** 5.14 µg/mL

**Q.** What about the “IC50 (μg/ml) against E. coli” value (E. coli ATCC 25922) of the same substance?
**A.** 2.65 µg/mL

**Q.** For “YKLLKLLLPKLKPLLIKL-NH2 [SEQ ID NO: 7, YKLLKLLLPKLKPLLIKL]”, which “HC50 (μg/ml) against Erythrocytes” value [1] is on record?
**A.** 68.90 µg/mL

**Q.** And the “IC50 (μg/ml) against S. aureus” value [2]?
**A.** 2.81 µg/mL

**Q.** What about the “IC50 (μg/ml) against E. coli” value (E. coli ATCC 25922) of the same substance?
**A.** 1.87 µg/mL

**Q.** Which results are given for “YKLLKLLLPKLKPLLPKL-NH2 [SEQ ID NO: 8, YKLLKLLLPKLKPLLPKL]”?
**A.** HC50 (μg/ml) against Erythrocytes [1]: > 125 µg/mL; IC50 (μg/ml) against S. aureus [2]: 22.82 µg/mL; Kcat /Km (S^-1 M^-1) ([3]; Table 4): 0.53 S^-1 M^-1; Km ([3]; Table 4): 8 mM; kcat × 10^3 (S^-1) ([3]; Table 4): 4.22 S^-1; IC50 (μg/ml) against E. coli (E. coli ATCC 25922): 3.14 µg/mL

**Q.** For “YKLLKLLLPKLKGLLFKL-NH2 [SEQ ID NO: 3, YKLLKLLLPKLKGLLFKL]”, which “HC50 (μg/ml) against Erythrocytes” value [1] is on record?
**A.** 24.41 µg/mL

**Q.** What about the “IC50 (μg/ml) against S. aureus” value [2] of the same substance?
**A.** 1.71 µg/mL

**Q.** What about the “IC50 (μg/ml) against E. coli” value (E. coli ATCC 25922) of the same substance?
**A.** 2.40 µg/mL

**Q.** With “YKLLKELLAKLKWLLRKL-NH2 [YKLLKELLAKLKWLLRKL-NH2]” as the substance, how does the “Kcat /Km (S^-1 M^-1)” value ([3]; Table 4) read?
**A.** 2.66 S^-1 M^-1

**Q.** What about the Km ([3]; Table 4) of the same substance?
**A.** 5.66 mM

**Q.** What about the “kcat × 10^3 (S^-1)” value ([3]; Table 4) of the same substance?
**A.** 15.08 S^-1

**Q.** What does the source list for “YKLLKKLLKKLKKLLKKL-NH2 [SEQ ID NO: 9, YKLLKKLLKKLKKLLKKL-NH2, reference compound]”?
**A.** HD50 value [1]: 27 µg/mL; IC50 value ([2]; ATCC 29213): 16 µg/mL; Kcat /Km (S^-1 M^-1) ([3]; Table 3): 0.70 S^-1 M^-1; Km ([3]; Table 3, 0.2 mM peptide, oxalacetic acid 2.8 to 22.8 mM, pH 7.0, 22° C.): 13.5 mM; kcat × 10^3 (S^-1) ([3]; Table 3): 9.5 S^-1; IC50 (E. coli ATCC 25922; ATCC 25922, 18 h): 9 µg/mL; IC50 (μg/ml) against E. coli (E. coli ATCC 25922): 9 µg/mL
